Experimental data reported in paper PMC10762078, “Role of UPF1-LIN28A interaction during early differentiation of pluripotent stem cells” (Nature Communications, 2024).
“Also recorded” adds a separate entry of the source. Ends that are not written are not given here.

Tests used:
Type in all cases: cell-based, human
p-UPF1 (Ser1096) = assay: Western blot of p-UPF1 (Ser1096) in CPP-peptide-treated hPSCs; details: for p-UPF1 (Ser1096)/Calnexin, mean: relative to CPP-P1 = 100, n = 3
Method: (§1) For CPP-conjugated peptide delivery, HeLa, 293T, and PA-1 cells were incubated with CPP-conjugated peptides or CPP-FITC at 2 μM in DMEM with 10% FBS for 12 h a day before cell harvest. hPSCs were treated with CPP-conjugated peptides at 10 μM in mTeSR Plus Medium, and the peptide-containing medium was changed every day over 10 days. The ROCK inhibitor (Tocris Bioscience, Y-27632) treated-hPSCs were dissociated into single cells using Accutase (Merck, SCR005) and differentiated into ectoderm, mesoderm, and endoderm using the STEMdiff Trilineage Differentiation Kit ([…] Technologies, 05230) following the manufacturer’s protocol. Differentiated cells treated with CPP-conjugated peptides were analysed at 0, 3, and 5 days for ectoderm and endoderm, and at 0, 3, and 4 days for mesoderm.
Protein samples were loaded for electrophoresis on sodium dodecyl sulphate (SDS) polyacrylamide gels, followed by Coomassie blue staining or transferred to nitrocellulose membranes (Cytiva) for WB. After blocking with 5% non-fat milk (Cellconic) in Tris-buffered saline with Tween-20 for 30 min at room temperature, the membranes were incubated with the following primary antibodies: anti-FLAG (GenScript, A00187; 1:2000), UPF1 (Cell Signaling Technology, 12040; 1:4000), UPF2 (Cell Signaling Technology, 11875; 1:2000), eIF4E (Cell Signaling Technology, 2067; 1:2000), β-actin (Sigma-Aldrich, A2228; 1:4000), GST (Cytiva, 27-4577-01; 1:2000), MYC (Calbiochem, OP10; 1:2000), Calnexin (Cell Signaling Technology, 2679; 1:4000), LIN28A (Cell Signaling Technology, 3978; 1:2000), pSer1096 phosphorylated UPF1 (1:2000)[58], or p-Thr28 phosphorylated UPF1 (ImmuQuest, IQ653; 1:2000). Primary antibodies were incubated overnight at 4 °C and then washed thrice with TBS-T, followed by incubation with secondary antibodies: Goat anti-Rabbit IgG (Invitrogen, 31460; 1:4000), Goat anti-Mouse IgG (Invitrogen, 31430; 1:4000), or Horse anti-Goat IgG (Vector Laboratories, PI-9500; 1:4000) for 1 h at room temperature. For pull-downed protein detection, all primary and secondary antibodies were diluted at 1:10,000. The blots were imaged using ChemiDoc XRS+ System (Bio-Rad) and the greyscale intensity values were quantified using Image Lab 3.0 software (Bio-Rad).
DAPI FITC Merge DAPI FITC Merge CHA15 H9 Pro2 H9
No peptide CPP-FITC Calnexin
For 2-day treatm ent For 4-day treatm ent […]
Student’s t-test was used. Data are presented as m ean values ± S.D (b) and mean values ± SEM (c and d). All statistical test us ed wer e two-s ided. T he m inim um num ber of independent biological replicate experim ents was a, b, and d n = 3, c n = 5. T he experim ents wer e conducted three tim es, each iteration producing consistent results. […]

CHA15 cells [1] = assay: Immunofluorescence counting of OCT4- and NANOG-positive cells (Fig. 6c); details: for NANOG-positive cells, fluorescence quantification, mean / OCT4-positive cells, fluorescence quantification, mean: CHA15, CPP-peptide 10 μM, mean of 4 sets; for NANOG fluorescence, difference between means vs P1 ± SEM / OCT4 fluorescence, difference between means vs P1 ± SEM: CHA15, vs CPP-P1
Method: as §1
hPSCs or differentiated cells were fixed in 4% paraformaldehyde (Sigma-Aldrich). After 15–20 min, the cells were washed with 0.1% bovine serum albumin in phosphate-buffered saline (BSA/PBS) thrice and blocked for 1 h by adding 0.3% Triton X-100 (Sigma-Aldrich) and 10% normal goat serum (NGS; Fitzgerald industries, NG22S). After blocking, cells were incubated with the following primary antibodies: anti-UPF1 (Cell Signaling Technology, 12040; 1:500), LIN28A (Cell Signaling Technology, 3978; 1:500), OCT4 (Santa Cruz, sc-5279; 1:500), NANOG (Cell Signaling Technology, 4903; 1:500), DLK1 (GeneTex, GTX60511; 1:500), SOX1 (Cell Signaling Technology, 4194; 1:500), or LHX2 (GeneTex, GTX129241; 1:500). Primary antibodies were incubated overnight at 4 °C followed by incubation with the following secondary antibodies: Cy3 (Jackson ImmunoResearch, 115-165-146; 1:500) or Alexa Fluor 488 (Invitrogen, A-11008; 1:500) followed by the incubation with secondary fluorescence-conjugated antibodies for 1 h. The cells were mounted in […] with DAPI mounting medium (Vector Laboratories, H1200).
Immunofluorescence staining, proximity ligation assay imaging, and cell-penetrating efficiency of CPP-FITC were imaged with a confocal laser scanning microscope (Leica, TSC SP5) or immunofluorescence microscope (Leica, DM5000B). Z-stacks were captured, with sections spanning the entire cell. The LAS X Life Science program was used to obtain the maximum intensity projections and cross-sections of the confocal images.

CHA15 cells [2] = assay: Flow cytometry (FACS) of OCT4- and NANOG-positive cells (Fig. 6c, Supplementary Fig. 6b); details: for NANOG-positive cells, FACS (relative), mean / OCT4-positive cells, FACS (relative), mean: CHA15, CPP-peptide 10 μM, mean of 3 sets; for NANOG FACS, difference between means vs P1 ± SEM / OCT4 FACS, difference between means vs P1 ± SEM: CHA15, vs CPP-P1
Method: as §1
To evaluate the relative cell number expressing the indicated proteins, CHA15 cells with the indicated CPP-conjugated peptide were fixed with BD Cytofix Fixation Buffer (BD Biosciences Pharmingen, 554655) followed by permeabilization with 0.1% BSA/PBS solution supplemented with 10% NGS and 0.3% Triton X-100 for 1 h at 4 °C. After washing, cells were incubated with the primary antibodies (OCT4 1:1000, NANOG 1:1000, DLK1 1:1000, SOX2 1:1000, LHX2 1:1000) and then, secondary antibody, Alexa Fluor 488 (1:1000), was applied. The positive cells were determined using flow cytometry (FACSCanto, BD Pharmingen), and data was analysed using the Flow Jo-v10 software program.

KKKWCRKKKSSADEKRYRALKRTAERELLMNA [CPP-P8, CPP conjugated to P8]
phosphorylated UPF1 (p-UPF1 (Ser1096); CHA15 and Pro2 cells, 10 μM): increased phosphorylated UPF1 in CHA15 and Pro2 cells; also recorded: upregulation of p-UPF1 in CHA15 and Pro2 cells
p-UPF1 levels after longer treatment (p-UPF1 (Ser1096); H9, 4-day treatment): upregulates the levels of p-UPF1
p-UPF1 levels (p-UPF1 (Ser1096); H9 cells, short treatment, 10 μM): did not elicit a corresponding increase in p-UPF1 levels in H9 cells
levels of OCT4 and NANOG (CHA15 cells [1]; CHA15, proliferative state): significantly decreased

KKKWCRKKKSSADEKRYRALKRTAERELLMNA [P8]
p-UPF1 (Ser1096)/Calnexin, mean (p-UPF1 (Ser1096); CHA15, 2-day treatment): 203%
p-UPF1 (Ser1096)/Calnexin, mean (p-UPF1 (Ser1096); H9, 2-day treatment): 91%
p-UPF1 (Ser1096)/Calnexin, mean (p-UPF1 (Ser1096); H9, 4-day treatment): 226%
p-UPF1 (Ser1096)/Calnexin, mean (p-UPF1 (Ser1096); Pro2, 2-day treatment): 244%
NANOG-positive cells, fluorescence quantification, mean (CHA15 cells [1]): 14.24
OCT4-positive cells, fluorescence quantification, mean (CHA15 cells [1]): 22.84
NANOG fluorescence, difference between means vs P1 ± SEM (CHA15 cells [1]): -71.49 ± 1.616
OCT4 fluorescence, difference between means vs P1 ± SEM (CHA15 cells [1]): -69.57 ± 2.939
NANOG-positive cells, FACS (relative), mean (CHA15 cells [2]): 0.7195
OCT4-positive cells, FACS (relative), mean (CHA15 cells [2]): 0.7944
NANOG FACS, difference between means vs P1 ± SEM (CHA15 cells [2]): -0.2805 ± 0.006838
OCT4 FACS, difference between means vs P1 ± SEM (CHA15 cells [2]): -0.2056 ± 0.01612

N-MPELQKLQQLKDE-C [P2, peptide derived from the UPF1 (419–700) domain]
NANOG-positive cells, fluorescence quantification, mean (CHA15 cells [1]): 81.51
OCT4-positive cells, fluorescence quantification, mean (CHA15 cells [1]): 89.62
NANOG fluorescence, difference between means vs P1 ± SEM (CHA15 cells [1]): -4.223 ± 2.867
OCT4 fluorescence, difference between means vs P1 ± SEM (CHA15 cells [1]): -2.780 ± 1.262
NANOG-positive cells, FACS (relative), mean (CHA15 cells [2]): 0.969
OCT4-positive cells, FACS (relative), mean (CHA15 cells [2]): 0.9851
NANOG FACS, difference between means vs P1 ± SEM (CHA15 cells [2]): -0.03103 ± 0.01235
OCT4 FACS, difference between means vs P1 ± SEM (CHA15 cells [2]): -0.01489 ± 0.005688

N-QKLDQKELQLEPM-C [P1, reference compound]
p-UPF1 (Ser1096)/Calnexin, mean (p-UPF1 (Ser1096); CHA15, 2-day treatment): 100%
p-UPF1 (Ser1096)/Calnexin, mean (p-UPF1 (Ser1096); H9, 2-day treatment): 100%
p-UPF1 (Ser1096)/Calnexin, mean (p-UPF1 (Ser1096); H9, 4-day treatment): 100%
p-UPF1 (Ser1096)/Calnexin, mean (p-UPF1 (Ser1096); Pro2, 2-day treatment): 100%
NANOG-positive cells, fluorescence quantification, mean (CHA15 cells [1]): 85.74
OCT4-positive cells, fluorescence quantification, mean (CHA15 cells [1]): 92.4
NANOG-positive cells, FACS (relative), mean (CHA15 cells [2]): 1
OCT4-positive cells, FACS (relative), mean (CHA15 cells [2]): 1
